Read-outs that look alike come from different tables or passages of the source.
Columns and labels:
ROCK1 = ROCK1 (Homo sapiens (Human), UniProt Q13464); assay: Z'Lyte assay, ROCK1 inhibition at a single concentration; type: biochemical
ROCK2 = ROCK2 (Homo sapiens (Human), UniProt O75116); assay: Z'Lyte assay, ROCK2 inhibition at a single concentration; type: biochemical
[1] = test system: cofilin phosphorylation, HeLa cells; assay: Cofilin phosphorylation by Western Blot (anti-phospho-Ser3-cofilin) in HeLa cells; type: cell-based; conditions: for inhibition at 25 µM: Homo sapiens
LIMK2 = LIMK2 (Homo sapiens (Human), UniProt P53671); assay: Lanthascreen Eu binding assay (TR-FRET), inhibition of LIMK2
LIMK1 = LIMK1 (Homo sapiens (Human), UniProt P53667); assay: Lanthascreen Eu binding assay (TR-FRET), inhibition of LIMK1
[2] = read-out: % inhibition (ROCK1) 1 uM, 1 uM
[3] = read-out: % inhibition (ROCK2) 1 uM, 1 uM
[4] = HeLa, 2 h, read-out: % inhibition of cofilin phosphorylation in HeLa cells (treatment 2 h, at 25 μM), Table 2, normalized to the control condition DMSO
[5] = read-out: % inhibition Cofilin phosphorylation HeLa cells treated 2 h with 25 uM of inhibitor, HeLa cells, 2 h, 25 uM
[6] = HeLa, 2 h, read-out: % inhibition Cofilin phosphorylation HeLa cells treated 2 h with 25 uM of inhibitor
[7] = HeLa, 2 h, read-out: % inhibition of cofilin phosphorylation in HeLa cells (treatment 2 h, at 25 μM)
[8] = read-out: % inhibition (ROCK1) 1 uM
[9] = read-out: % inhibition (ROCK2) 1 uM

ROCK1, sequence (Q13464 whole entry): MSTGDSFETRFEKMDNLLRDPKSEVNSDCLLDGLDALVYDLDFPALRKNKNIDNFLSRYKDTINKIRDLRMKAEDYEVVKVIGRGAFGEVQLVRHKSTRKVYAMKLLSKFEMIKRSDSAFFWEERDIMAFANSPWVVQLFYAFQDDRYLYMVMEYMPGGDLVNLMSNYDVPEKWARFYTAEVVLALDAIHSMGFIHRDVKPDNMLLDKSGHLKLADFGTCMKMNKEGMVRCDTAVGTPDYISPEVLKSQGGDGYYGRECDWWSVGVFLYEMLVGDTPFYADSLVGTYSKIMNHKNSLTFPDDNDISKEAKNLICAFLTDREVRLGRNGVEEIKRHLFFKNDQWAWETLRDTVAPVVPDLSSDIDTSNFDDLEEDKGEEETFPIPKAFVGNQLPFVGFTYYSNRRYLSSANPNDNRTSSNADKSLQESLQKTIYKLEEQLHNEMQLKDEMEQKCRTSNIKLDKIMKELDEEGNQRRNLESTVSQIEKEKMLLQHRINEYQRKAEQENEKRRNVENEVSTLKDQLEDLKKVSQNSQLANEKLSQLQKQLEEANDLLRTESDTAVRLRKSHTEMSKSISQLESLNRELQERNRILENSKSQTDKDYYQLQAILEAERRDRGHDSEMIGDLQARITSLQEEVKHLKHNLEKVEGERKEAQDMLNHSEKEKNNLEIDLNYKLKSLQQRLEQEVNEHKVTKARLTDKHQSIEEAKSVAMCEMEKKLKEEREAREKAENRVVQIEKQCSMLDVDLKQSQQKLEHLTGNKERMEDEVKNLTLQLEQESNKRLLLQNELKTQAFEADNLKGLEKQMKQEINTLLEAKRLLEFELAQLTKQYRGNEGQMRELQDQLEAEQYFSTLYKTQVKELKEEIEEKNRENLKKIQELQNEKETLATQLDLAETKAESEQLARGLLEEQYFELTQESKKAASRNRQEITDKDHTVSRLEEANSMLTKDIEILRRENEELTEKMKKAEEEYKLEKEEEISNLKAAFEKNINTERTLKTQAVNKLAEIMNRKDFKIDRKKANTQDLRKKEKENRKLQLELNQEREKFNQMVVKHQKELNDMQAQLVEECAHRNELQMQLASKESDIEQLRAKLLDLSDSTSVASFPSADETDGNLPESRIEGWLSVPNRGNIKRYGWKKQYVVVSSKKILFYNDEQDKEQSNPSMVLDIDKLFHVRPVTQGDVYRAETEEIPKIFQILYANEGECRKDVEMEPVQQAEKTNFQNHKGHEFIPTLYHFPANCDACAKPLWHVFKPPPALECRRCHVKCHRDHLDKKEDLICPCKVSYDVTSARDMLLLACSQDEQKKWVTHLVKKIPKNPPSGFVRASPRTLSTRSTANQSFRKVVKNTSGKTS
ROCK2, sequence (O75116 whole entry): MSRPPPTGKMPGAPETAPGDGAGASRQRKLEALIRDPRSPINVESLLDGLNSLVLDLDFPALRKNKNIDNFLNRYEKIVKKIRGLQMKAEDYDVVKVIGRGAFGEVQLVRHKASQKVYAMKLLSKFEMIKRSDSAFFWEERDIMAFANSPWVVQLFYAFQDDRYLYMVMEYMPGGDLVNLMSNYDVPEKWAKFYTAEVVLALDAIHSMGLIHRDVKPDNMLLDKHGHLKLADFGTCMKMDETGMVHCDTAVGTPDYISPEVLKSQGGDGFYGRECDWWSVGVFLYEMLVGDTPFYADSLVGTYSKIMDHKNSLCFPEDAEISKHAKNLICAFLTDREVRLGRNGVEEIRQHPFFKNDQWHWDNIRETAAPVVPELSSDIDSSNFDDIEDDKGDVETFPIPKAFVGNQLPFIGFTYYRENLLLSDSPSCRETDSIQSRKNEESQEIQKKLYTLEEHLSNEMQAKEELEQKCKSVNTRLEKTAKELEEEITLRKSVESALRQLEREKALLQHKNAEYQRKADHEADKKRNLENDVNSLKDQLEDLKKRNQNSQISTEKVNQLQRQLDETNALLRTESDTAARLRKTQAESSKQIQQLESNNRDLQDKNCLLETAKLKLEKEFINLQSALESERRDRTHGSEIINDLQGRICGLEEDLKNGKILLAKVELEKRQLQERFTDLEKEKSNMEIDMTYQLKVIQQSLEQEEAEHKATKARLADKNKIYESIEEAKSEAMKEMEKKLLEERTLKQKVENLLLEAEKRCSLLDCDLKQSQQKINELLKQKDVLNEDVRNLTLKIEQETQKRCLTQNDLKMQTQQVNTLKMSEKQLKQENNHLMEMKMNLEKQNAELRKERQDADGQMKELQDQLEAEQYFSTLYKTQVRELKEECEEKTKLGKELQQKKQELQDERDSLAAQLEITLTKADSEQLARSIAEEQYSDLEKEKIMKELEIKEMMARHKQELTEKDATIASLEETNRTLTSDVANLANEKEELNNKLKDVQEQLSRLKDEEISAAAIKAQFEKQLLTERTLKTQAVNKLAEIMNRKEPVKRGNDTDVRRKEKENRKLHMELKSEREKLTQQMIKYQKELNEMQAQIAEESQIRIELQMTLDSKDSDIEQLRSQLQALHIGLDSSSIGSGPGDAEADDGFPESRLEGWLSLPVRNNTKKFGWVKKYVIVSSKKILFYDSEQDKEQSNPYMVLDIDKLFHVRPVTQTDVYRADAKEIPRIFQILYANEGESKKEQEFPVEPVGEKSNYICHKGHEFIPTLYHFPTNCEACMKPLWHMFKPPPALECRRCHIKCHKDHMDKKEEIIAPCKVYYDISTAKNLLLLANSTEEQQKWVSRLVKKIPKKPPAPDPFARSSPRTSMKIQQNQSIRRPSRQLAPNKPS
LIMK2, sequence (P53671 whole entry): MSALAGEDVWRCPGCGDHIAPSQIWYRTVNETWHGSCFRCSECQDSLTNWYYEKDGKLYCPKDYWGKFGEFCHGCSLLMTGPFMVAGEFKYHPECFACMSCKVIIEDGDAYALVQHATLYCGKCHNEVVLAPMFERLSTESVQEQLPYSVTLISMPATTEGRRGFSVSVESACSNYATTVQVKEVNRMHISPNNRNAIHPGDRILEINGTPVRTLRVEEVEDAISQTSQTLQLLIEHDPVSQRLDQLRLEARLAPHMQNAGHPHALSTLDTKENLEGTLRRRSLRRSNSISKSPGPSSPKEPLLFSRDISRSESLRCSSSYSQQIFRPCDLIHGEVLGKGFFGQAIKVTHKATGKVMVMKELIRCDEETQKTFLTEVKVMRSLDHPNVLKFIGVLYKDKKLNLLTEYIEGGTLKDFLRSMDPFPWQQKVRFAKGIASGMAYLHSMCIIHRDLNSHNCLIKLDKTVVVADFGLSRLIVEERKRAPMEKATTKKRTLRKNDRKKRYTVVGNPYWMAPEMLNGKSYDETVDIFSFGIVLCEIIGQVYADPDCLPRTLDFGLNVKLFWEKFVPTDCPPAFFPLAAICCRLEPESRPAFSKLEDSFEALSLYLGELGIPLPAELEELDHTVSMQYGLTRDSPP
LIMK1, sequence (P53667 whole entry): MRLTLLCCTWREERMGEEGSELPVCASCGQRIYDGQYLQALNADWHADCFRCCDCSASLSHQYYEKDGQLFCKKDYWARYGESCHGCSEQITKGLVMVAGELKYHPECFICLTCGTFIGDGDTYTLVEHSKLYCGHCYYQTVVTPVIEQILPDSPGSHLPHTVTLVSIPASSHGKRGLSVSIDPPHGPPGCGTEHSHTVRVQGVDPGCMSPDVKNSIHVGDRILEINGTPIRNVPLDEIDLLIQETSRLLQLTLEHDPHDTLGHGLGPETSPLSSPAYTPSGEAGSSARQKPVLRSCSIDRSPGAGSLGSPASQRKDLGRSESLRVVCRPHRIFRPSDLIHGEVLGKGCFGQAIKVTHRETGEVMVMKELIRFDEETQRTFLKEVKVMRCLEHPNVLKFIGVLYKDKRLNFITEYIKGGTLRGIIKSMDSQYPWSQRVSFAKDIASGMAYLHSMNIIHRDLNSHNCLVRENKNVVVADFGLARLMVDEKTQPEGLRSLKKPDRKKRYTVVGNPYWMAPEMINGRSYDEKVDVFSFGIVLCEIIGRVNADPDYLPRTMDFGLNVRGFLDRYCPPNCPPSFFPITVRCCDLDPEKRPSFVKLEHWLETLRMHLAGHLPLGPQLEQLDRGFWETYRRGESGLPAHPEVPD

With `Cc1c[nH]c2ncnc(C3=CC(C)N(C(=O)Nc4cccc(Br)c4)CC3)c12` (centres unmarked) [Compound 49a-49b, N-(3-bromophenyl)-6-methyl-4-(5-methyl-7H-pyrrolo[2,3-d]pyrimidin-4-yl)-3,6-dihydropyridine-1(2H)-carboxamide (49a) and N-(3-bromophenyl)-2-methyl-4-(5-methyl-7H-pyrrolo[2,3-d]pyrimidin-4-yl)-3,6-dihydropyridine-1(2H)-carboxamide (49b)] the “% inhibition (ROCK1) 1 uM” value (ROCK1) was 96%, the “% inhibition (ROCK2) 1 uM” value (ROCK2) was 98% and the “% inhibition Cofilin phosphorylation HeLa cells treated 2 h with 25 uM of inhibitor” value [1] was 88.1%. The “% inhibition of cofilin phosphorylation in HeLa cells (treatment 2 h, at 25 μM)” value [1] was 88.1%.

`O=C(Nc1cccc(Oc2ccccc2)c1)N1CC=C(c2ncnc3[nH]cc(C4CC4)c23)CC1` [Compound 79, 4-(5-Cyclopropyl-7H-pyrrolo[2,3-d]pyrimidin-4-yl)-N-(3-phenoxyphenyl)-3,6-dihydropyridine-1(2H)-carboxamide] gave an inhibition at 1 µM (ROCK1; [2]) of 6%, an inhibition at 1 µM (ROCK2; [3]) of 8% and a Ki (LIMK2; Lanthascreen Eu binding assay) of 10.9 nM. For the same compound, the inhibition at 25 µM [1, 4] was 83.1%, the inhibition at 25 µM [1, 5] was 83.1% and the Ki (LIMK1; Lanthascreen Eu binding assay) was 42.5 nM.

With `O=C(Nc1cccc(-n2cccc2)c1)N1CC=C(c2ncnc3[nH]cc(C4CC4)c23)CC1` [Compound 81, 4-(5-Cyclopropyl-7H-pyrrolo[2,3-d]pyrimidin-4-yl)-N-(3-pyrrol-1-ylphenyl)-3,6-dihydropyridine-1(2H)-carboxamide] the inhibition at 1 µM (ROCK1; [2]) was 36%, the inhibition at 1 µM (ROCK2; [3]) was 35% and the inhibition at 25 µM [1, 6] was 90%. The inhibition at 25 µM [1, 7] was 90%.

`COc1cccc(Oc2cccc(NC(=O)N3CC=C(c4ncnc5[nH]cc(C6CC6)c45)CC3)c2)c1` [Compound 82, 4-(5-Cyclopropyl-7H-pyrrolo[2,3-d]pyrimidin-4-yl)-N-[3-(3-methoxyphenoxy)phenyl]-3,6-dihydropyridine-1(2H)-carboxamide] showed an inhibition at 1 µM (ROCK1; [2]) of 16%, an inhibition at 1 µM (ROCK2; [3]) of 11% and a Ki (LIMK2; Lanthascreen Eu binding assay) of 20.3 nM. For the same compound, the inhibition at 25 µM [1, 4] was 82.7%, the inhibition at 25 µM [1, 5] was 82.7% and the Ki (LIMK1; Lanthascreen Eu binding assay) was 47.4 nM.

`O=C(Nc1cccc(Cl)c1)N1CC=C(c2ncnc3[nH]c4c(c23)CCC4)CC1` [Compound 111, N-(3-Chlorophenyl)-4-(5,6,7,8-tetrahydrocyclopenta[4,5]pyrrolo[2,3-d]pyrimidin-4-yl)-3,6-dihydropyridine-1(2H)-carboxamide] was tested, and the inhibition at 1 µM (ROCK1; [8]) was 10%, the inhibition at 1 µM (ROCK2; [9]) was 14% and the Ki (LIMK2; Lanthascreen Eu binding assay) was 25.5 nM. The inhibition at 25 µM [1, 4] was 82.3%, the inhibition at 25 µM [1, 5] was 82.3% and the Ki (LIMK1; Lanthascreen Eu binding assay) was 5.78 nM.

Work on `O=C(Nc1cccc(Br)c1)N1CC=C(c2ncnc3[nH]c4c(c23)CCC4)CC1` [Compound 112, N-(3-Bromophenyl)-4-(5,6,7,8-tetrahydrocyclopenta[4,5]pyrrolo[2,3-d]pyrimidin-4-yl)-3,6-dihydropyridine-1(2H)-carboxamide] yielded an inhibition at 1 µM (ROCK1; [8]) of 8%, an inhibition at 1 µM (ROCK2; [9]) of 13% and a Ki (LIMK2) of 24 nM. The inhibition at 25 µM [1, 6] was 84.5%, the inhibition at 25 µM [1, 7] was 84.5% and the Ki (LIMK1) was 7 nM.

`O=C(Nc1cccc(F)c1)N1CC=C(c2ncnc3[nH]c4c(c23)CCCC4)CC1` [Compound 113, N-(3-Fluorophenyl)-4-(6,7,8,9-tetrahydro-5H-pyrimido[4,5-b]indol-4-yl)-3,6-dihydropyridine-1(2H)-carboxamide] was tested, and the inhibition at 1 µM (ROCK1; [2]) was 7%, the inhibition at 1 µM (ROCK2; [3]) was 4% and the Ki (LIMK2; Lanthascreen Eu binding assay) was 25.6 nM. The inhibition at 25 µM [1, 5] was 87% and the Ki (LIMK1; Lanthascreen Eu binding assay) was 7.13 nM.

`O=C(Nc1cccc(Br)c1)N1CC=C(c2ncnc3[nH]c4c(c23)CCCC4)CC1` [Compound 115, N-(3-Bromophenyl)-4-(6,7,8,9-tetrahydro-5H-pyrimido[4,5-b]indol-4-yl)-3,6-dihydropyridine-1(2H)-carboxamide] showed an inhibition at 1 µM (ROCK1; [8]) of 7%, an inhibition at 1 µM (ROCK2; [9]) of 11% and a Ki (LIMK2) of 16.2 nM. For the same compound, the inhibition at 25 µM [1, 6] was 81.8%, the inhibition at 25 µM [1, 7] was 81.8% and the Ki (LIMK1) was 5.37 nM.

`O=C(Nc1cccc(F)c1)N1CC=C(c2ncnc3[nH]c4c(c23)CCCCC4)CC1` [Compound 116, N-(3-Fluorophenyl)-4-(5,6,7,8,9,10-hexahydrocyclohepta[4,5]pyrrolo[2,3-d]pyrimidin-4-yl)-3,6-dihydropyridine-1(2H)-carboxamide] was tested, and the inhibition at 1 µM (ROCK1; [2]) was -8%, the inhibition at 1 µM (ROCK2; [3]) was -7% and the Ki (LIMK2; Lanthascreen Eu binding assay) was 64 nM. It also gave an inhibition at 25 µM [1, 4] of 73.1%, an inhibition at 25 µM [1, 5] of 73.1% and a Ki (LIMK1; Lanthascreen Eu binding assay) of 16.5 nM.

`O=C(Nc1cccc(Cl)c1)N1CC=C(c2ncnc3[nH]c4c(c23)CCCCC4)CC1` [Compound 117, N-(3-Chlorophenyl)-4-(5,6,7,8,9,10-hexahydrocyclohepta[4,5]pyrrolo[2,3-d]pyrimidin-4-yl)-3,6-dihydropyridine-1(2H)-carboxamide] gave an inhibition at 1 µM (ROCK1; [8]) of 4%, an inhibition at 1 µM (ROCK2; [9]) of 7% and a Ki (LIMK2; Lanthascreen Eu binding assay) of 61.3 nM. For the same compound, the inhibition at 25 µM [1, 5] was 69.2% and the Ki (LIMK1; Lanthascreen Eu binding assay) was 22 nM.

`O=C(Nc1cccc(Br)c1)N1CC=C(c2ncnc3[nH]c4c(c23)CCCCC4)CC1` [Compound 118, N-(3-Bromophenyl)-4-(5,6,7,8,9,10-hexahydrocyclohepta[4,5]pyrrolo[2,3-d]pyrimidin-4-yl)-3,6-dihydropyridine-1(2H)-carboxamide] showed an inhibition at 1 µM (ROCK1; [8]) of 10%, an inhibition at 1 µM (ROCK2; [9]) of -4% and a Ki (LIMK2) of 40.4 nM. It also gave an inhibition at 25 µM [1, 6] of 84.2%, an inhibition at 25 µM [1, 7] of 84.2% and a Ki (LIMK1) of 14.7 nM.

For `O=C(Nc1ccccc1)N1CC=C(c2ncnc3[nH]c4c(c23)CCC4)CC1` [Compound 119, N-Phenyl-4-(5,6,7,8-tetrahydrocyclopenta[4,5]pyrrolo[2,3-d]pyrimidin-4-yl)-3,6-dihydropyridine-1(2H)-carboxamide], the inhibition at 1 µM (ROCK1; [8]) was 0%, the inhibition at 1 µM (ROCK2; [9]) was 11% and the Ki (LIMK2; Lanthascreen Eu binding assay) was 30.4 nM. For the same compound, the inhibition at 25 µM [1, 5] was 64.1% and the Ki (LIMK1; Lanthascreen Eu binding assay) was 7.98 nM.

Compound `COc1cccc(NC(=O)N2CC=C(c3ncnc4[nH]c5c(c34)CCC5)CC2)c1` [Compound 121, N-(3-Methoxyphenyl)-4-(5,6,7,8-tetrahydrocyclopenta[4,5]pyrrolo[2,3-d]pyrimidin-4-yl)-3,6-dihydropyridine-1(2H)-carboxamide] has an inhibition at 1 µM (ROCK1; [2]) of 3%, an inhibition at 1 µM (ROCK2; [3]) of 18% and a Ki (LIMK2; Lanthascreen Eu binding assay) of 25.2 nM. It also gave an inhibition at 25 µM [1, 5] of 64.5% and a Ki (LIMK1; Lanthascreen Eu binding assay) of 6.1 nM.

Compound `N#Cc1cccc(NC(=O)N2CC=C(c3ncnc4[nH]c5c(c34)CCC5)CC2)c1` [Compound 127, N-(3-Cyanophenyl)-4-(7,9,11-triazatricyclo[6.4.0.02,6]dodeca-1(8),2(6),9,11-tetraen-12-yl)-3,6-dihydropyridine-1(2H)-carboxamide] has an inhibition at 1 µM (ROCK1; [2]) of 3%, an inhibition at 1 µM (ROCK2; [3]) of 20% and a Ki (LIMK2; Lanthascreen Eu binding assay) of 39.3 nM. The inhibition at 25 µM [1, 5] was 68.5% and the Ki (LIMK1; Lanthascreen Eu binding assay) was 8.19 nM.

For `O=C(Nc1cccc(C(F)(F)F)c1)N1CC=C(c2ncnc3[nH]c4c(c23)CCC4)CC1` [Compound 128, 4-(7,9,11-Triazatricyclo[6.4.0.02,6]dodeca-1(8),2(6),9,11-tetraen-12-yl)-N[3(trifluoromethyl)phenyl]-3,6-dihydropyridine-1(2H)-carboxamide], the “% inhibition (ROCK2) 1 uM” value (ROCK2; 1 uM) was −14%, the Ki (LIMK2; Lanthascreen Eu binding assay) was 68.3 nM and the “% inhibition Cofilin phosphorylation HeLa cells treated 2 h with 25 uM of inhibitor” value ([1]; HeLa cells, 2 h, 25 uM) was 83.9%. For the same compound, the “% inhibition of cofilin phosphorylation in HeLa cells (treatment 2 h, at 25 μM)” value ([1]; Table 2, normalized to the control condition DMSO) was 83.9% and the Ki (LIMK1; Lanthascreen Eu binding assay) was 27.1 nM.

`CCc1cccc(NC(=O)N2CC=C(c3ncnc4[nH]c5c(c34)CCC5)CC2)c1` [Compound 129, N-(3-Ethylphenyl)-4-(7,9,11-triazatricyclo[6.4.0.02,6]dodeca-1(8),2(6),9,11-tetraen-12-yl)-3,6-dihydropyridine-1(2H)-carboxamide] showed an inhibition at 1 µM (ROCK1; [2]) of 18%, an inhibition at 1 µM (ROCK2; [3]) of 11% and a Ki (LIMK2; Lanthascreen Eu binding assay) of 54.9 nM. The inhibition at 25 µM [1, 4] was 84.5%, the inhibition at 25 µM [1, 5] was 84.5% and the Ki (LIMK1; Lanthascreen Eu binding assay) was 16.6 nM.

`O=C(Nc1cccc(N2CCOCC2)c1)N1CC=C(c2ncnc3[nH]c4c(c23)CCC4)CC1` [Compound 130, N-(3-morpholinophenyl)-4-(7,9,11-triazatricyclo[6.4.0.02,6]dodeca-1(8),2(6),9,11-tetraen-12-yl)-3,6-dihydropyridine-1(2H)-carboxamide] showed an inhibition at 1 µM (ROCK1; [2]) of 26%, an inhibition at 1 µM (ROCK2; [3]) of 0% and a Ki (LIMK2; Lanthascreen Eu binding assay) of 87.5 nM. It also gave an inhibition at 25 µM [1, 4] of 79.2%, an inhibition at 25 µM [1, 5] of 79.2% and a Ki (LIMK1; Lanthascreen Eu binding assay) of 26.7 nM.

`CN(C)C(=O)Nc1cccc(NC(=O)N2CC=C(c3ncnc4[nH]c5c(c34)CCC5)CC2)c1` [Compound 131, N-[3-(Dimethylcarbamoylamino)phenyl]-4-(7,9,11-triaza-tricyclo[6.4.0.02,6]dodeca-1(8),2(6),9,11-tetraen-12-yl)-3,6-dihydropyridine-1(2H)-carboxamide] gave an inhibition at 1 µM (ROCK1; [2]) of 14%, an inhibition at 1 µM (ROCK2; [3]) of 1% and a Ki (LIMK2; Lanthascreen Eu binding assay) of 8.73 nM. It also gave an inhibition at 25 µM [1, 4] of 82.9%, an inhibition at 25 µM [1, 5] of 82.9% and a Ki (LIMK1; Lanthascreen Eu binding assay) of 46.9 nM.

`CN(C)Cc1cccc(NC(=O)N2CC=C(c3ncnc4[nH]c5c(c34)CCC5)CC2)c1` [Compound 132, N-[3-[(dimethylamino)methyl]phenyl]-4-(7,9,11-triaza-tricyclo[6.4.0.02,6]dodeca-1(8),2(6),9,11-tetraen-12-yl)-3,6-dihydropyridine-1(2H)-carboxamide] gave an inhibition at 1 µM (ROCK1; [2]) of -6%, an inhibition at 1 µM (ROCK2; [3]) of 2% and a Ki (LIMK2; Lanthascreen Eu binding assay) of 415 nM. The inhibition at 25 µM [1, 4] was 76.2%, the inhibition at 25 µM [1, 5] was 76.2% and the Ki (LIMK1; Lanthascreen Eu binding assay) was 389 nM.

From patent US20230312576A1, “4-(7H-PYRROLO[2,3-D]PYRIMIDIN-4-YL)-3,6-DIHYDROPYRIDINE-1-(2H)-CARBOXAMIDE DERIVATIVES AS LIMK AND/OR ROCK KINASES INHIBITORS FOR USE IN THE TREATMENT OF CANCER” (CENTRE NATIONAL DE LA RECHERCHE SCIENTIFIQUE, priority 2020, published 2023)
